Measurements reported in the supplement of paper PMC4862054.
Where “and” joins values, the source holds several entries; their conditions need not be identical. Equal entries are not always repeated.

Tests used:
Settings in all cases: incubation time: 72 h
[1] = test system: HCC1599; test: drug sensitivity score (DSS), CellTox Green (DSS (AUC-based score)); higher = stronger drug effect (viability inhibition or cytotoxicity); extreme values may be limits of the assay
Method in brief: (§1)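 Each compound occupied 5 concentrations in 10-fold steps over its own 10,000-fold range in 384-well plates, into which breast cancer cell lines were seeded as 20 µl suspension. Following 72 h of incubation, CellTox Green fluorescence (485/520 nm) was measured, and CellTiter-Glo luminescence was measured after 10 min at room temperature. Plates were individually normalised to 0.1 % DMSO and a positive kill control. From the area under the fitted dose-response curve, a drug sensitivity score was calculated.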

[2] = test system: MDA-MB-436; test: as above
Method in brief: as §1

[3] = test system: HDQ-P1; test: as above
Method in brief: as §1

[4] = test system: BT-549; test: as above
Method in brief: as §1

[5] = test system: MDA-MB-231; test: as above
Method in brief: as §1

[6] = test system: HCC1937; test: as above
Method in brief: as §1

[7] = test system: CAL-85-1; test: normalised viability (% of control), CellTiter-Blue; higher = more viable cells (about 100 = DMSO control)
Method in brief: (§2)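 The reported quantity is normalised viability at a single listed concentration of the series. Compound in 5 µl medium was pre-dispensed into 384-well plates and 20 µl of breast cancer cell suspension was added for 72 h. A 2 h, 37 °C CellTiter-Blue step (2.5 µl) preceded fluorescence reading at 560/590 nm, and plates were normalised to vehicle (100) and a positive kill control (0).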

[8] = test system: HCC1599; test: as above
Method in brief: as §2

[9] = test system: CAL-51; test: as above
Method in brief: as §2

[10] = test system: MDA-MB-436; test: as above
Method in brief: as §2

[11] = test system: MDA-MB-453; test: as above
Method in brief: as §2

[12] = test system: MFM-223; test: as above
Method in brief: as §2

[13] = test system: CAL-148; test: as above
Method in brief: as §2

[14] = test system: HDQ-P1; test: as above
Method in brief: as §2

[15] = test system: CAL-120; test: as above
Method in brief: as §2

[16] = test system: BT-549; test: as above
Method in brief: as §2

[17] = test system: SK-BR-3; test: as above
Method in brief: as §2

[18] = test system: MDA-MB-231; test: as above
Method in brief: as §2

[19] = test system: Hs578T; test: as above
Method in brief: as §2

[20] = test system: HCC1937; test: as above
Method in brief: as §2

[21] = test system: MDA-MB-468; test: as above
Method in brief: as §2

[22] = test system: HCC1143; test: as above
Method in brief: as §2

[23] = test system: BT-474; test: as above
Method in brief: as §2

[24] = test system: DU-4475; test: as above
Method in brief: as §2

O=C(CCBr)N1CCN(C(=O)CCBr)CC1 [Pipobroman]
Settings | drug sensitivity score
[1] | 0
[2] | 0
[3] | 0
[4] | 0
[5] | 0
[6] | 0

normalised viability [%]
Settings | 3 nM | 10 nM | 30 nM | 100 nM | 1000 nM | 10000 nM
[7] | 99.3 | – | 98.6 | 100 | – | –
[8] | – | 97 | – | – | 92.8 | 83.2
[9] | 114 | – | 111 | 103 | – | –
[10] | – | 92.6 | – | – | 98.7 | 81.7
[11] | 124 | – | 95.9 | 92.7 | – | –
[12] | – | 86.6 | – | – | 90.4 | 35.7
[13] | 97.9 | – | 102 | 103 | – | –
[14] | 104 | – | 83.8 | 107 | – | –
[15] | – | 90.1 | – | – | 103 | 84.9
[16] | – | 87.1 | – | – | 87.1 | 84.2
[17] | – | 101 | – | – | 119 | 95.6
[18] | – | 97.8 | – | – | 104 | 89.4
[19] | – | 107 | – | – | 97 | 95.8
[20] | – | 89.2 | – | – | 77.9 | 85.3
[21] | – | 98 | – | – | 94.2 | 87.4
[22] | – | 82 | – | – | 86.2 | 88.2
[23] | – | 120 | – | – | 102 | 133
[24] | 111 | – | 105 | 108 | – | –

c1cc(CN2CCCNCCNCCCNCC2)ccc1CN1CCCNCCNCCCNCC1 [Plerixafor]
Settings | drug sensitivity score
[1] | 0
[2] | 0
[3] | 0
[4] | 0
[5] | 0
[6] | 0

normalised viability [%]
Settings | 0.75 nM | 2.5 nM | 7.5 nM | 25 nM | 250 nM | 2500 nM
[7] | 91.9 | – | 91.3 | 89.2 | – | –
[8] | – | 107 | – | – | 98.7 | 115
[9] | 106 | – | 99 | 103 | – | –
[10] | – | 116 | – | – | 107 | 118
[11] | 116 | – | 114 | 106 | – | –
[12] | – | 109 | – | – | 104 | 101
[13] | 77.3 | – | 89.2 | 82.7 | – | –
[14] | 106 | – | 123 | 111 | – | –
[15] | – | 93.1 | – | – | 91.4 | 96
[16] | – | 92.7 | – | – | 95.9 | 120
[17] | – | 101 | – | – | 99.7 | 106
[18] | – | 89.1 | – | – | 98.5 | 102
[19] | – | 117 | – | – | 97.3 | 102
[20] | – | 91.3 | – | – | 103 | 111
[21] | – | 109 | – | – | 112 | 108
[22] | – | 81 | – | – | 87.4 | 83.2
[23] | – | 101 | – | – | 117 | 97.6
[24] | 91.4 | – | 97.3 | 97.9 | – | –

CNC(=O)c1cc(Oc2ccc(NC(=O)Nc3ccc(Cl)c(C(F)(F)F)c3)cc2)ccn1 [Sorafenib]
Settings | drug sensitivity score
[1] | 0
[2] | 0
[3] | 0
[4] | 0
[5] | 0
[6] | 0

Settings | normalised viability
[7], 0.3 nM | 98.3% and 99.7%
[7], 3 nM | 104% and 98.8%
[7], 10 nM | 105% and 108%
[8], 100 nM | 115% and 126%
[8], 1000 nM | 100% and 112%
[9], 0.3 nM | 112% and 107%
[9], 3 nM | 108% and 99.3%
[9], 10 nM | 98.3% and 96.8%
[10], 1 nM | 92.8% and 87%
[10], 100 nM | 103% and 80.7%
[10], 1000 nM | 91% and 88.2%
[11], 0.3 nM | 122% and 105%
[11], 3 nM | 97.2% and 99.1%
[11], 10 nM | 96.8% and 102%
[12], 1 nM | 94.9% and 108%
[12], 100 nM | 96.7% and 103%
[12], 1000 nM | 48.2% and 67.9%
[13], 0.3 nM | 101% and 88%
[13], 3 nM | 99.3% and 91.5%
[13], 10 nM | 102% and 87.5%
[14], 0.3 nM | 107% and 97.1%
[14], 3 nM | 98.5% and 88.8%
[15], 1 nM | 106% and 91.3%
[15], 100 nM | 101% and 90.5%
[15], 1000 nM | 96.5% and 89%
[16], 1 nM | 83.7% and 97.1%
[16], 100 nM | 99.5% and 82.8%
[16], 1000 nM | 94.5% and 80.4%
[17], 1 nM | 112% and 89.3%
[17], 100 nM | 107% and 102%
[17], 1000 nM | 110% and 108%
[18], 1 nM | 103% and 90.2%
[18], 100 nM | 88.7% and 96.2%
[18], 1000 nM | 84.8% and 63.9%
[19], 1 nM | 126% and 102%
[19], 100 nM | 109% and 123%
[19], 1000 nM | 101% and 87.8%
[20], 100 nM | 106% and 100%
[20], 1000 nM | 82.3% and 82.8%
[21], 1 nM | 115% and 93.2%
[21], 1000 nM | 102% and 112%
[22], 1 nM | 99% and 84.3%
[22], 100 nM | 105% and 85.9%
[22], 1000 nM | 96.1% and 91.6%
[23], 1000 nM | 130% and 106%
[24], 0.3 nM | 94.3% and 109%
[24], 3 nM | 101% and 95.7%

CCN(CC)CCNC(=O)c1c(C)[nH]c(/C=C2\C(=O)Nc3ccc(F)cc32)c1C [Sunitinib]
Settings | drug sensitivity score
[1] | 0
[2] | 0
[3] | 0
[4] | 0
[5] | 0
[6] | 0

Settings | normalised viability
[7], 0.3 nM | 92% and 101%
[7], 3 nM | 90.5% and 104%
[7], 10 nM | 98.1% and 98.9%
[8], 1 nM | 113% and 97.3%
[8], 100 nM | 85.4% and 102%
[8], 1000 nM | 101% and 90.8%
[9], 0.3 nM | 116% and 93.3%
[9], 10 nM | 107% and 91.1%
[10], 1 nM | 94.5% and 114%
[10], 100 nM | 85.8% and 110%
[10], 1000 nM | 98.5% and 108%
[11], 3 nM | 90.5% and 94.7%
[11], 10 nM | 95.2% and 82%
[12], 1 nM | 101% and 105%
[12], 100 nM | 91.4% and 96.6%
[12], 1000 nM | 62.7% and 68.1%
[13], 0.3 nM | 92.3% and 103%
[13], 3 nM | 90.1% and 97.4%
[13], 10 nM | 89.6% and 111%
[14], 0.3 nM | 101% and 95.9%
[14], 3 nM | 85.3% and 98.3%
[15], 1000 nM | 88.6% and 104%
[16], 1 nM | 90.8% and 103%
[16], 100 nM | 92.6% and 88.2%
[16], 1000 nM | 89.9% and 111%
[17], 1 nM | 94.8% and 101%
[17], 100 nM | 98.3% and 96.8%
[17], 1000 nM | 90.2% and 90.4%
[18], 1 nM | 90.4% and 86.8%
[18], 100 nM | 89% and 90.3%
[18], 1000 nM | 114% and 112%
[19], 1 nM | 106% and 100%
[19], 100 nM | 103% and 113%
[19], 1000 nM | 108% and 107%
[20], 1 nM | 93.7% and 84.2%
[20], 100 nM | 82.3% and 102%
[20], 1000 nM | 84.5% and 93.2%
[21], 1 nM | 104% and 89.3%
[21], 100 nM | 104% and 95.4%
[21], 1000 nM | 100%
[22], 100 nM | 84.3% and 106%
[23], 1 nM | 110% and 97.1%
[23], 100 nM | 115% and 92.5%
[24], 0.3 nM | 99.7% and 88.2%
[24], 3 nM | 92.5% and 88.1%
[24], 10 nM | 108% and 95.7%
